# Results taken from ChEMBL document CHEMBL1201862, “PubChem BioAssay data set” (2004).
#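 Protocol summary: plate cells (96-well), add compound at 5 concentrations, incubate 48 h, interpolate endpoints linearly. GI50: concentration for 50% inhibition of growth.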 Active and inactive are the calls of the source. No stated cut-off is given here; in the data, active = GI50 up to about 1.1 µM and inactive = higher.
# How the values were obtained:
# Assay in all cases: NCI anticancer screen, dose series, 48 h
# DU-145 = test system: DU-145
# CAKI-1 = test system: CAKI-1
# LOX IMVI = test system: LOX IMVI
# OVCAR-3 = test system: OVCAR-3
# TK-10 = test system: TK-10
# A498 = test system: A498
# SN12C = test system: SN12C
# NCI-H23 = test system: NCI-H23
# CCRF-CEM = test system: CCRF-CEM
# OVCAR-5 = test system: OVCAR-5
# NCI-H522 = test system: NCI-H522
# HL-60 = test system: HL-60
# HOP-92 = test system: HOP-92
# T47D = test system: T47D
# Malme-3M = test system: Malme-3M
# SF-268 = test system: SF-268
# COLO 205 = test system: COLO 205
# SK-OV-3 = test system: SK-OV-3
# SF-295 = test system: SF-295
# EKVX = test system: EKVX
# MOLT-4 = test system: MOLT-4
# ACHN = test system: ACHN
# IGROV-1 = test system: IGROV-1
# BT-549 = test system: BT-549
# KM12 = test system: KM12
# MDA-MB-231 = test system: MDA-MB-231
# NCI/ADR-RES = test system: NCI/ADR-RES
# SNB-75 = test system: SNB-75
# UACC-257 = test system: UACC-257
# UACC-62 = test system: UACC-62
# MCF7 = test system: MCF7
# MDA-MB-435 = test system: MDA-MB-435
# A549 = test system: A549
# M14 = test system: M14
# UO-31 = test system: UO-31
# SW-620 = test system: SW-620
# HCT-116 = test system: HCT-116
# OVCAR-8 = test system: OVCAR-8
# NCI-H226 = test system: NCI-H226
# PC-3 = test system: PC-3
# 786-0 = test system: 786-0
# RXF 393 = test system: RXF 393
# K562 = test system: K562
# HOP-62 = test system: HOP-62
# SR = test system: SR
# MDA-N = test system: MDA-N
# SK-MEL-2 = test system: SK-MEL-2
# SK-MEL-28 = test system: SK-MEL-28
# U-251 = test system: U-251
# RPMI-8226 = test system: RPMI-8226
# SK-MEL-5 = test system: SK-MEL-5
# Hs-578T = test system: Hs-578T
# HT-29 = test system: HT-29
# HCC 2998 = test system: HCC 2998
# OVCAR-4 = test system: OVCAR-4
# SF-539 = test system: SF-539
# HCT-15 = test system: HCT-15
# SNB-19 = test system: SNB-19
# NCI-H460 = test system: NCI-H460
structure (smiles),measurement,setting,value
COC(=O)c1cnn2c1n[n+]([O-])c1ccccc12,GI50,DU-145,> 100 µM (inactive)
same,GI50,CAKI-1,> 100 µM (inactive)
same,GI50,LOX IMVI,> 100 µM (inactive)
same,GI50,OVCAR-3,25.9 µM (inactive)
same,GI50,TK-10,> 100 µM (inactive)
same,GI50,A498,30.3 µM (inactive)
same,GI50,SN12C,> 100 µM (inactive)
same,GI50,NCI-H23,57 µM (inactive)
same,GI50,CCRF-CEM,> 100 µM (inactive)
same,GI50,OVCAR-5,> 100 µM (inactive)
same,GI50,NCI-H522,> 100 µM (inactive)
same,GI50,HL-60,68.5 µM (inactive)
same,GI50,HOP-92,> 100 µM (inactive)
same,GI50,T47D,> 100 µM (inactive)
same,GI50,Malme-3M,> 100 µM (inactive)
same,GI50,SF-268,> 100 µM (inactive)
same,GI50,COLO 205,85.5 µM (inactive)
same,GI50,SK-OV-3,> 100 µM (inactive)
same,GI50,SF-295,> 100 µM (inactive)
same,GI50,EKVX,> 100 µM (inactive)
same,GI50,MOLT-4,> 100 µM (inactive)
same,GI50,ACHN,> 100 µM (inactive)
same,GI50,IGROV-1,> 100 µM (inactive)
same,GI50,BT-549,> 100 µM (inactive)
same,GI50,KM12,> 100 µM (inactive)
same,GI50,MDA-MB-231,> 100 µM (inactive)
same,GI50,NCI/ADR-RES,> 100 µM (inactive)
same,GI50,SNB-75,> 100 µM (inactive)
same,GI50,UACC-257,> 100 µM (inactive)
same,GI50,UACC-62,> 100 µM (inactive)
same,GI50,MCF7,> 100 µM (inactive)
same,GI50,MDA-MB-435,> 100 µM (inactive)
same,GI50,A549,> 100 µM (inactive)
same,GI50,M14,> 100 µM (inactive)
same,GI50,UO-31,37.4 µM (inactive)
same,GI50,SW-620,> 100 µM (inactive)
same,GI50,HCT-116,> 100 µM (inactive)
same,GI50,OVCAR-8,> 100 µM (inactive)
same,GI50,NCI-H226,> 100 µM (inactive)
same,GI50,PC-3,> 100 µM (inactive)
same,GI50,786-0,> 100 µM (inactive)
same,GI50,RXF 393,> 100 µM (inactive)
same,GI50,K562,> 100 µM (inactive)
same,GI50,HOP-62,> 100 µM (inactive)
same,GI50,SR,> 100 µM (inactive)
same,GI50,MDA-N,> 100 µM (inactive)
same,GI50,SK-MEL-2,> 100 µM (inactive)
same,GI50,SK-MEL-28,> 100 µM (inactive)
same,GI50,U-251,> 100 µM (inactive)
same,GI50,RPMI-8226,> 100 µM (inactive)
same,GI50,SK-MEL-5,26.9 µM (inactive)
same,GI50,Hs-578T,> 100 µM (inactive)
same,GI50,HT-29,> 100 µM (inactive)
NNC(=O)CCCCCCCC(=O)O,GI50,DU-145,> 100 µM (inactive)
same,GI50,CAKI-1,> 100 µM (inactive)
same,GI50,LOX IMVI,> 100 µM (inactive)
same,GI50,OVCAR-3,> 100 µM (inactive)
same,GI50,TK-10,> 100 µM (inactive)
same,GI50,HCC 2998,> 100 µM (inactive)
same,GI50,A498,> 100 µM (inactive)
same,GI50,OVCAR-4,> 100 µM (inactive)
same,GI50,SN12C,> 100 µM (inactive)
same,GI50,NCI-H23,> 100 µM (inactive)
same,GI50,CCRF-CEM,> 100 µM (inactive)
same,GI50,OVCAR-5,> 100 µM (inactive)
same,GI50,NCI-H522,> 100 µM (inactive)
same,GI50,HL-60,> 100 µM (inactive)
same,GI50,HOP-92,> 100 µM (inactive)
same,GI50,T47D,> 100 µM (inactive)
same,GI50,SF-539,> 100 µM (inactive)
same,GI50,Malme-3M,> 100 µM (inactive)
same,GI50,COLO 205,> 100 µM (inactive)
same,GI50,SK-OV-3,> 100 µM (inactive)
same,GI50,SF-295,> 100 µM (inactive)
same,GI50,EKVX,> 100 µM (inactive)
same,GI50,MOLT-4,> 100 µM (inactive)
same,GI50,ACHN,> 100 µM (inactive)
same,GI50,IGROV-1,> 100 µM (inactive)
same,GI50,BT-549,> 100 µM (inactive)
same,GI50,KM12,> 100 µM (inactive)
same,GI50,MDA-MB-231,> 100 µM (inactive)
same,GI50,NCI/ADR-RES,> 100 µM (inactive)
same,GI50,SNB-75,> 100 µM (inactive)
same,GI50,UACC-257,> 100 µM (inactive)
same,GI50,UACC-62,> 100 µM (inactive)
same,GI50,MCF7,> 100 µM (inactive)
same,GI50,MDA-MB-435,> 100 µM (inactive)
same,GI50,A549,> 100 µM (inactive)
same,GI50,M14,> 100 µM (inactive)
same,GI50,HCT-15,> 100 µM
same,GI50,UO-31,> 100 µM (inactive)
same,GI50,SW-620,> 100 µM (inactive)
same,GI50,HCT-116,> 100 µM (inactive)
same,GI50,OVCAR-8,10.4 µM (inactive)
same,GI50,NCI-H226,> 100 µM (inactive)
same,GI50,PC-3,> 100 µM (inactive)
same,GI50,786-0,> 100 µM (inactive)
same,GI50,K562,> 100 µM (inactive)
same,GI50,HOP-62,> 100 µM (inactive)
same,GI50,SR,> 100 µM (inactive)
same,GI50,MDA-N,> 100 µM (inactive)
same,GI50,SK-MEL-2,> 100 µM (inactive)
same,GI50,SNB-19,> 100 µM (inactive)
same,GI50,SK-MEL-28,> 100 µM (inactive)
same,GI50,U-251,> 100 µM (inactive)
same,GI50,NCI-H460,> 100 µM (inactive)
same,GI50,RPMI-8226,> 100 µM (inactive)
same,GI50,SK-MEL-5,> 100 µM (inactive)
same,GI50,Hs-578T,> 100 µM (inactive)
same,GI50,HT-29,> 100 µM (inactive)
CCOC1CN(C)/C(=N\c2cccc3ccccc23)S1 (stereo unspecified),GI50,DU-145,> 10 µM (inactive)
same,GI50,CAKI-1,> 10 µM (inactive)
same,GI50,LOX IMVI,> 10 µM (inactive)
same,GI50,OVCAR-3,> 10 µM (inactive)
same,GI50,TK-10,> 10 µM (inactive)
same,GI50,HCC 2998,> 10 µM (inactive)
same,GI50,A498,> 10 µM (inactive)
same,GI50,OVCAR-4,> 10 µM (inactive)
same,GI50,SN12C,> 10 µM (inactive)
same,GI50,NCI-H23,> 10 µM (inactive)
same,GI50,CCRF-CEM,> 10 µM (inactive)
same,GI50,OVCAR-5,> 10 µM (inactive)
same,GI50,NCI-H522,> 10 µM (inactive)
same,GI50,HOP-92,> 10 µM (inactive)
same,GI50,T47D,> 10 µM (inactive)
same,GI50,SF-539,> 10 µM (inactive)
same,GI50,Malme-3M,> 10 µM (inactive)
same,GI50,SF-268,> 10 µM (inactive)
same,GI50,COLO 205,> 10 µM (inactive)
same,GI50,SK-OV-3,> 10 µM (inactive)
same,GI50,SF-295,> 10 µM (inactive)
same,GI50,EKVX,> 10 µM (inactive)
same,GI50,MOLT-4,> 10 µM (inactive)
same,GI50,ACHN,> 10 µM (inactive)
same,GI50,IGROV-1,> 10 µM (inactive)
same,GI50,BT-549,> 10 µM (inactive)
same,GI50,KM12,> 10 µM (inactive)
same,GI50,MDA-MB-231,> 10 µM (inactive)
same,GI50,NCI/ADR-RES,> 10 µM (inactive)
same,GI50,SNB-75,> 10 µM (inactive)
same,GI50,UACC-257,> 10 µM (inactive)
same,GI50,UACC-62,> 10 µM (inactive)
same,GI50,MCF7,> 10 µM (inactive)
same,GI50,MDA-MB-435,> 10 µM (inactive)
same,GI50,A549,> 10 µM (inactive)
same,GI50,M14,> 10 µM (inactive)
same,GI50,HCT-15,> 10 µM
same,GI50,UO-31,> 10 µM (inactive)
same,GI50,SW-620,> 10 µM (inactive)
same,GI50,HCT-116,> 10 µM (inactive)
same,GI50,OVCAR-8,> 10 µM (inactive)
same,GI50,NCI-H226,> 10 µM (inactive)
same,GI50,PC-3,> 10 µM (inactive)
same,GI50,786-0,> 10 µM (inactive)
same,GI50,K562,> 10 µM (inactive)
same,GI50,HOP-62,> 10 µM (inactive)
same,GI50,SR,> 10 µM (inactive)
same,GI50,MDA-N,> 10 µM (inactive)
same,GI50,SNB-19,> 10 µM (inactive)
same,GI50,SK-MEL-28,> 10 µM (inactive)
same,GI50,U-251,> 10 µM (inactive)
same,GI50,NCI-H460,> 10 µM (inactive)
same,GI50,RPMI-8226,> 10 µM (inactive)
same,GI50,SK-MEL-5,> 10 µM (inactive)
same,GI50,Hs-578T,> 10 µM (inactive)
same,GI50,HT-29,> 10 µM (inactive)
